Experimental data: patent US20230271956A1, “AMIDE DERIVATIVES” (Merck Patent GmbH, priority 2020, published 2023)

Assays:
ACSS2 = molecular target: T1, ACSS2 (Homo sapiens, UniProt Q9NR19); assay: Cellular assay of 14C acetate incorporation into histones (IC50 ACSS2 cellular histone); assay type: cell-based; conditions: HCT-15 cells
T1 construct: endogenous fatty acid synthesis activity in the human HCT-15 cancer cell line; endogenous in cells; host or cells: HCT-15
Method: This protocol describes a cellular assay capable to quantify endogenous histone acetylation activity in the human HCT-15 cancer cell line following the incorporation of extracellularly administered radiolabeled ^14C acetate with a scintillation based read out on acid extracted histones.
HCT-15 cells are trypsinized, washed and suspended in DMEM culture medium supplemented with penicillin/streptomycin (100 U/mL), sodium pyruvate (1 mM), and 10% FBS
Compounds serial dilutions are prepared in 96-well V-bottom microplate from 10 mM stock solutions in DMSO. From these dilutions 0.5 µl are transferred to a fresh plate including pure DMSO as negative control. The dilutions are prepared such, that the final concentration in the assay is 1/400 of the concentration in the serial dilution. The final DMSO concentration in the assay is 0.25 %.
The cell suspension is seeded at densities of 2x10^5 cells per 170 µl into individual wells of a 96 well plate each containing 0.5 µl aliquots of compound serial dilutions and are kept for 1h in a cell incubator. To each well 30 µL of a mixture containing 0.5 mCi/mL of ^14C-acetate with full medium are added. Then, the wells are incubated for 3 hrs in the cell incubator.
Further steps of the procedure should be conducted on ice or instrumentations precooled to 4° C. Cells are sedimented in the 96-well V-bottom microplate by centrifugation (Eppendorf 5804 R) at 1200 rpm for 5 min. The supernatant is removed and the cells are washed twice with 200µL of PBS-NaB (5 mM sodium butyrate) buffer by iterative resuspension and centrifugation. Finally, the cells are resuspended in 50 µL of TEB (PBS-NaB + 0.5 % Triton X-100) and left on ice for 10 minutes. After centrifugation at 2300 rpm for 10 minutes at 4° C. the supernatant is removed, the remaining pellet is suspended in 50 µL of 0.2 M HCl and incubated over night at 4° C. After incubation the well plate is shaken for 2 minutes in a MTP plate shaker set to 1200 rpm and then centrifuged at 3700 rpm for 10 mins. The lysate is carefully aspirated (~43 µL) and transferred into a white MTP plate (Greiner bio-one 65509). 90 µL of Ultima Gold XR scintillation cocktail are added and the plates are sealed with a transparent cover tape before mixing vigorously using plate shaker set to 1200 rpm. Radioactivity from ^14C incorporation in the wells is measured as CPM count in a MicroBeta Trilux luminescence counter.

human rec ACSS2 = molecular target: T2, human rec ACSS2 (Homo sapiens, UniProt Q9NR19); assay: Biochemical activity ACSS2 assay (AMP-Glo); conditions: human recombinant ACSS2, AMP-Glo, 180 min at 37° C.
T2 construct: myc (C); purchased Origene
Method: The biochemical activity assay for ACSS2 is based on the detection of released AMP by AMP-Glo ™ Assay kit (Promega, Madison). The assay is run in three steps: the enzymatic reaction in which human rec ACSS2 activates acetate with ATP and Coenzyme A as cosubstrates to acetyI-coA thereby releasing AMP and the detection reaction of AMP by AMP Glo assay in which after the destruction of the residual ATP with AMP Glo reagent 1 produced AMP is converted to ATP that is measured in a luciferase assay system (detection reagent). The ACSS2 activity correlates with the detected luminescence signal.
The assay was performed in Perkin Elmer 384well white Proxiplates in a total volume of 8 µl.
1 nM (fc) C-term myc tagged ACSS2 (human, recombinant, Origene, Rockville, US) and a mixture of 100 µM (fc) ATP, 100 µM (fc) Coenzyme A and 500 µM (fc) sodium acetate were incubated in a total volume of 5 µl (50 mM Hepes, 1 mM Mg-chloride, 150 mM NaCl, 1 mM DTT, 0.01 % (w/v) BSA, 0.3 % DMSO, pH 7.5) in the absence or presence of the test compound (10 dilution concentrations, start conc 30 µM) for 180 min at 37° C. The reaction was stopped and residual ATP destroyed by the addition of 1 µl AMP Glo reagent solution (Promega, Madison, US). After 1 h incubation at room temperature 2 µl of AMP Glo detection reagent was added and the assay was incubated for 0.75 hr at room temperature. The luminescence signal was measured with an Envision multimode reader (Perkin Elmer LAS Germany GmbH) at 700 nm in luminescence mode. The full value used was the inhibitor-free reaction. The pharmacological zero value was generated by addition of ACSS2 inhibitor (Ac-CoA Synthase Inhibitor - CAS 508186-14-9 -Calbiochem) in a final concentration of 5 µM. The inhibitory values (IC50) were determined using the program Assay Analyzer® from GeneData.

T2 sequence (Q9NR19 whole entry): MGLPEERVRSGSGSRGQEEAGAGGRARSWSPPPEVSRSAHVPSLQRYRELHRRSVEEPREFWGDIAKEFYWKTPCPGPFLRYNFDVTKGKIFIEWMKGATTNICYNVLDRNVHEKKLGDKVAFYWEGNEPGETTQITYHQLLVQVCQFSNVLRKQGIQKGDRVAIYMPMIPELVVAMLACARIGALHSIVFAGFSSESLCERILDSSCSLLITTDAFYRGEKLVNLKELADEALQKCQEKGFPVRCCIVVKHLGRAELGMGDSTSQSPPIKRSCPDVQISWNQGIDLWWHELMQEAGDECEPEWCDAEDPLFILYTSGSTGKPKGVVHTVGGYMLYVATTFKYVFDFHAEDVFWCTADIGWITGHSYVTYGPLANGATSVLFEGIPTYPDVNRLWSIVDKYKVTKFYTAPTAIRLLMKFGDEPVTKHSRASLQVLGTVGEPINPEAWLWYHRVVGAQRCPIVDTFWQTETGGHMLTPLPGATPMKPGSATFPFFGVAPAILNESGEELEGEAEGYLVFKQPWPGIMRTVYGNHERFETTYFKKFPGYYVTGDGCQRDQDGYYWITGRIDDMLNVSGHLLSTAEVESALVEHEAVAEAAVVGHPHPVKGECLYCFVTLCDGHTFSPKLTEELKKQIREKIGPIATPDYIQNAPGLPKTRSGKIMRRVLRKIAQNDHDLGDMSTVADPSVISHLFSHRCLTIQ
T1 sequence (Q9NR19 whole entry): as above

SMILES	IC50 (ACSS2) [nM]	IC50 (human rec ACSS2) [nM]
CCn1cnc(NC(=O)c2cc3c(nc2OC)nc(C(O)(c2ccccc2)c2ccc(OC(F)F)cc2)n3CC)n1 (racemic) [Compound 86, 2-{[4-(difluoromethoxy)phenyl](hydroxy)phenylmethyl}-1-ethyl-N-(1-ethyl-1H-1,2,4-triazol-3-yl)-5-methoxy-1H-imidazo[4,5-b]pyridine-6-carboxamide]	1 to 10	1 to 10
CCn1cnc(NC(=O)c2cc3c(nc2C)nc(C(O)(c2ccccc2F)c2ccc(OC(F)F)cc2F)n3CC)n1 (racemic) [Compound 97, 2-{[4-(difluoromethoxy)-2-fluorophenyl](2-fluorophenyl)hydroxymethyl}-1-ethyl-N-(1-ethyl-1H-1,2,4-triazol-3-yl)-5-methyl-1H-imidazo[4,5-b]pyridine-6-carboxamide]	10 to 100	1 to 10
CCc1c(C(O)(c2ccccc2)c2ccccn2)nc2cc(OC)c(C(=O)Nc3ncn(CC)n3)cn12 (single isomer, unassigned) [Compound 17, 3-ethyl-N-(1-ethyl-1,2,4-triazol-3-yl)-2-[hydroxy-phenyl-(2-pyridyl)methyl]-7-methoxy-imidazo[1,2-a]pyridine-6-carboxamide]	10 to 100	10 to 100
CCn1cnc(NC(=O)c2cc3c(nc2OC)nc(C(O)(c2ccccc2)c2ccccn2)n3CC)n1 (single isomer, unassigned) [Compound 54, 1-ethyl-N-(1-ethyl-1H-1,2,4-triazol-3-yl)-2-[hydroxy(phenyl)(pyridin-2-yl)methyl]-5-methoxy-1H-imidazo[4,5-b]pyridine-6-carboxamide]	10 to 100	10 to 100
CCn1cnc(NC(=O)c2cc3c(nc2OC)nc(C(O)(c2ccccc2F)c2ccc(OC(F)F)cc2F)n3CC)n1 (single isomer, unassigned) [Compound 71]	0.01 to 1	0.01 to 1
CCn1cnc(NC(=O)c2cc3c(nc2OC)nc(C(O)(c2ccccc2)c2ccc(OC(F)F)cc2)n3CC)n1 (single isomer, unassigned) [Compound 72]	0.01 to 1	1 to 10
CCn1cnc(NC(=O)c2cc3c(nc2C)nc(C(O)(c2ccccc2F)c2ccc(OC(F)F)cc2F)n3CC)n1 (single isomer, unassigned) [Compound 95]	10 to 100	10 to 100
CCn1cnc(NC(=O)c2cc3c(nc2C)nc(C(O)(c2ccccc2F)c2ccc(OC(F)F)cc2F)n3CC)n1 (single isomer, unassigned) [Compound 96]	10 to 100	1 to 10
CCn1cnc(NC(=O)c2cc3c(nc2OC)nc(C(O)(c2ccccc2)c2ccccc2)n3CCOC)n1 [Compound 41, N-(1-ethyl-1H-1,2,4-triazol-3-yl)-2-(hydroxydiphenylmethyl)-5-methoxy-1-(2-methoxyethyl)-1H-imidazo[4,5-b]pyridine-6-carboxamide]	1 to 10	1 to 10
CCn1cnc(NC(=O)c2cc3c(nc2OC)nc(C(O)(c2ccccc2C)c2ccccc2C)n3CC)n1 [Compound 52, 1-ethyl-N-(1-ethyl-1H-1,2,4-triazol-3-yl)-2-[hydroxybis(2-methylphenyl)methyl]-5-methoxy-1H-imidazo[4,5-b]pyridine-6-carboxamide]	10 to 100	10 to 100
CCn1ncc(NC(=O)c2cc3c(nc2OC)nc(C(O)(c2ccccc2)c2ccccc2)n3CC)n1 [Compound 58, 1-ethyl-N-(2-ethyl-2H-1,20,3-triazol-4-yl)-2-(hydroxydiphenylmethyl)-5-methoxy-1H-imidazo[4,5-b]pyridine-6-carboxamide]	10 to 100	10 to 100

More lines, now with the values ahead:

IC50 (ACSS2) [nM]	IC50 (human rec ACSS2) [nM]	SMILES
1 to 10	10 to 100	CCn1cc(NC(=O)c2cc3c(nc2OC)nc(C(O)(c2ccccc2)c2ccc(OC(F)F)cc2F)n3CC)cn1 (racemic) [Compound 79, 2-{[4-(difluoromethoxy)-2-fluorophenyl](hydroxy)phenylmethyl}-1-ethyl-N-(1-ethyl-1H-pyrazol-4-yl)-5-methoxy-1H-imidazo[4,5-b]pyridine-6-carboxamide]
10 to 100	10 to 100	CCn1cc(NC(=O)c2cc3c(nc2OC)nc(C(O)(c2ccccc2)c2ccc(OC(F)F)cc2)n3CC)cn1 (racemic) [Compound 80, 2-{[4-(difluoromethoxy)phenyl](hydroxy)phenylmethyl}-1-ethyl-N-(1-ethyl-1H-pyrazol-4-yl)-5-methoxy-1H-imidazo[4,5-b]pyridine-6-carboxamide]
10 to 100	1 to 10	CCn1cc(NC(=O)c2cc3c(nc2Cl)nc(C(O)(c2ccccc2)c2ccc(OC(F)F)cc2F)n3CC)cn1 (racemic) [Compound 81, 5-chloro-2-{[4-(difluoromethoxy)-2-fluorophenyl](hydroxy)phenylmethyl}-1-ethyl-N-(1-ethyl-1H-pyrazol-4-yl)-1H-imidazo[4,5-b]pyridine-6-carboxamide]
10 to 100	10 to 100	CCn1cc(NC(=O)c2cc3c(nc2Cl)nc(C(O)(c2ccccc2)c2ccc(OC(F)F)cc2)n3CC)cn1 (racemic) [Compound 84, 5-chloro-2-{[4-(difluoromethoxy)phenyl](hydroxy)phenylmethyl}-1-ethyl-N-(1-ethyl-1H-pyrazol-4-yl)-1H-imidazo[4,5-b]pyridine-6-carboxamide]
10 to 100	10 to 100	CCn1cc(NC(=O)c2cc3c(nc2Cl)nc(C(O)(c2ccc(OC(F)F)cc2)c2ccccc2F)n3CC)cn1 (racemic) [Compound 85, 5-chloro-2-{[4-(difluoromethoxy)phenyl](2-fluorophenyl)hydroxymethyl}-1-ethyl-N-(1-ethyl-1H-pyrazol-4-yl)-1H-imidazo[4,5-b]pyridine-6-carboxamide]
1 to 10	1 to 10	CCn1cnc(NC(=O)c2cc3c(nc2OC)nc(C(O)(c2ccc(OC(F)F)cc2)c2ccccc2F)n3CC)n1 (racemic) [Compound 87, 2-{[4-(difluoromethoxy)phenyl](2-fluorophenyl)hydroxymethyl}-1-ethyl-N-(1-ethyl-1H-1,2,4-triazol-3-yl)-5-methoxy-1H-imidazo[4,5-b]pyridine-6-carboxamide]
10 to 100	10 to 100	CCn1cc(NC(=O)c2cc3c(nc2OC)nc(C(O)(c2ccc(OC(F)F)cc2)c2ccccc2F)n3CC)cn1 (racemic) [Compound 88, 2-{[4-(difluoromethoxy)phenyl](2-fluorophenyl)hydroxymethyl}-1-ethyl-N-(1-ethyl-1H-pyrazol-4-yl)-5-methoxy-1H-imidazo[4,5-b]pyridine-6-carboxamide]
10 to 100	1 to 10	CCn1cc(NC(=O)c2cc3c(nc2Cl)nc(C(O)(c2ccccc2F)c2ccc(OC(F)F)cc2F)n3CC)cn1 (racemic) [Compound 93, 5-chloro-2-{[4-(difluoromethoxy)-2-fluorophenyl](2-fluorophenyl)hydroxymethyl}-1-ethyl-N-(1-ethyl-1H-pyrazol-4-yl)-1H-imidazo[4,5-b]pyridine-6-carboxamide]
1 to 10	1 to 10	CCn1cc(NC(=O)c2cc3c(nc2Cl)nc(C(O)(c2ccccc2)c2ccc(OC(F)F)cc2F)n3CC)cn1 (single isomer, unassigned) [Compound 74]
